In patent EP4603105A1, “PHARMACEUTICAL COMPOSITION CONTAINING CYCLIC COMPOUND HAVING SELECTIVE KRAS INHIBITORY EFFECT AGAINST HRAS AND NRAS” (CHUGAI SEIYAKU KABUSHIKI KAISHA, priority 2022, dated 2024):

Assays:
[1] = biological target: GDP-bound KRAS wild-type protein (Homo sapiens, UniProt P01116); experiment: Binding to KRAS by surface plasmon resonance (SPR), dissociation constant KD; details: 1:1 binding model
Procedure, shortened: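 Measured at 30°C: SPR with GDP-loaded, E. coli-expressed biotin-Avi RAS captured (~100–300 RU), ascending 75 s compound injections, HBS pH 7.4 with GDP, MgCl2, 4% DMSO. KD from 1:1 fit.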

[2] = biological target: GDP-bound NRAS wild-type protein (Homo sapiens, UniProt P01111); experiment: Binding to NRAS by surface plasmon resonance (SPR), KD and KD ratio to KRAS; details: ratio of KD for GDP-bound NRAS wild-type protein to KD for KRAS
Procedure, shortened: (§1)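 Captured GDP-RAS (~100–300 RU) was exposed to increasing compound concentrations, 75 s per step, in running buffer with 10 µM GDP, 10 mM MgCl2 and 4% DMSO at pH 7.4.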

[3] = biological target: HRAS wild-type protein (Homo sapiens, UniProt P01112); experiment: Binding to HRAS by surface plasmon resonance (SPR), KD and KD ratio to KRAS; details: ratio of KD for HRAS wild-type protein to KD for KRAS
Procedure, shortened: as §1

[4] = system: human lung cancer strain NCI-H441; experiment: NCI-H441 cell proliferation inhibitory activity (CellTiter-Glo, 4 days); format: cell-based; details: NCI-H441 cells, 4 days, read-out: NCl-H441 IC50
Procedure, shortened: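 Step one: dispense the test compound in serial DMSO dilutions. Step three: add the reagent and measure […].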

Sequence of HRAS wild-type protein (P01112 whole entry): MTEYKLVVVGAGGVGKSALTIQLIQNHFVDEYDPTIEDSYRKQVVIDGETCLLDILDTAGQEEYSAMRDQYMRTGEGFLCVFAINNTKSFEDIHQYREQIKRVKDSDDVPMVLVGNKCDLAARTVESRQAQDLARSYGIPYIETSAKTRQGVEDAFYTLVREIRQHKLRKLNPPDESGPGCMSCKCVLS
Sequence of GDP-bound KRAS wild-type protein (P01116 1-188 isoform P01116-2): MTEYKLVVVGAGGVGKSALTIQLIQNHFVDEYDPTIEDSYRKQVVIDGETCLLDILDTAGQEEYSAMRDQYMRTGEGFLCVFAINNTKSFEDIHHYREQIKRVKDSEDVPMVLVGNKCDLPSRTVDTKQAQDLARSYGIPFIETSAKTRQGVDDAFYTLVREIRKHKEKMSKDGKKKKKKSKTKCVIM
Sequence of GDP-bound NRAS wild-type protein (P01111 whole entry): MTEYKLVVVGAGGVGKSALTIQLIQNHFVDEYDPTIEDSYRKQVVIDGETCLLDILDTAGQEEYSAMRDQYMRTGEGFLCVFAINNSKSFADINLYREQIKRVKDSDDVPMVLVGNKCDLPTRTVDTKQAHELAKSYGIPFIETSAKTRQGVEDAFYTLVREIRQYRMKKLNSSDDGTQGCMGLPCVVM

With CCC[C@H]1C(=O)N[C@@H](CC(C)C)C(=O)N2C[C@@H](OC)C[C@H]2C(=O)N(C)[C@H]2C/C=C\CCN(C2=O)[C@@H](Cc2ccc(C)cc2)C(=O)N(C)CC(=O)N[C@@H](CCc2cc(F)c(C(F)(F)F)c(F)c2)C(=O)N2C[C@H](OCC)C[C@H]2C(=O)NC2(CC(C)(C)C2)C(=O)N(C)[C@@H](C2CCCC2)C(=O)N(C)[C@H](C(=O)N(C)C)CC(=O)N1C [PP2553] the Kd [1] was 3.4 nM, the “NRAS /KRAS” value [2] was “A (a compound having 10 or more and less than 20 is denoted as A)” and the “HRAS /KRAS” value [3] was “B (a compound having 3 or more and less than 10 is denoted as B)”. It also gave an IC50 [4] of 121 nM.
CCC[C@H]1C(=O)N[C@@H](CC(C)C)C(=O)N2C[C@@H](OC)C[C@H]2C(=O)N(C)[C@H]2C/C=C\CCN(C2=O)[C@@H](Cc2ccc(C)cc2)C(=O)N(C)CC(=O)N[C@@H](CCc2ccc(C(F)(F)F)c(Cl)c2)C(=O)N2C[C@H](OCC)C[C@H]2C(=O)NC2(CC(C)(C)C2)C(=O)N(C)[C@@H](C2CCCC2)C(=O)N(C)[C@H](C(=O)N(C)C)CC(=O)N1C [PP2555] was tested, and the Kd [1] was 4.1 nM, the “NRAS /KRAS” value [2] was “A (a compound having 10 or more and less than 20 is denoted as A)” and the “HRAS /KRAS” value [3] was “B (a compound having 3 or more and less than 10 is denoted as B)”. For the same compound, the IC50 [4] was 212 nM.
CCC[C@H]1C(=O)N[C@@H]([C@@H](C)CC)C(=O)N2C[C@@H](OC)C[C@H]2C(=O)N(C)[C@H]2C/C=C\CCN(C2=O)[C@@H](Cc2ccc(C)cc2)C(=O)N(C)CC(=O)N[C@@H](CCc2cc(F)c(C(F)(F)F)c(F)c2)C(=O)N2C[C@H](OCC)C[C@H]2C(=O)NC2(CC(C)(C)C2)C(=O)N(C)[C@@H](C2CCCC2)C(=O)N(C)[C@H](C(=O)N(C)C)CC(=O)N1C [PP2556] was tested, and the Kd [1] was 0.21 nM, the “NRAS /KRAS” value [2] was “A (a compound having 10 or more and less than 20 is denoted as A)” and the “HRAS /KRAS” value [3] was “B (a compound having 3 or more and less than 10 is denoted as B)”. It also gave an IC50 [4] of 9.4 nM.
In the case of CCC[C@H]1C(=O)N[C@@H]([C@@H](C)CC)C(=O)N(C2CC2)CC(=O)N(C)[C@H]2C/C=C\CCN(C2=O)[C@@H](Cc2ccc(C)cc2)C(=O)N(C)CC(=O)N[C@@H](CCc2ccc(Cl)c(Cl)c2)C(=O)N2C[C@H](OCC)C[C@H]2C(=O)NC2(CC(C)(C)C2)C(=O)N(C)[C@@H](C2CCCC2)C(=O)N(C)[C@H](C(=O)N(C)C)CC(=O)N1C [PP2559], the Kd [1] is reported as 0.91 nM, the “NRAS /KRAS” value [2] is reported as “A (a compound having 10 or more and less than 20 is denoted as A)” and the “HRAS /KRAS” value [3] is reported as “A (a compound having 10 or more and less than 20 is denoted as A)”. For the same compound, the IC50 [4] was 103 nM.
With CCC[C@H]1C(=O)N[C@@H]([C@@H](C)CC)C(=O)N(C2CC2)CC(=O)N(C)[C@H]2C/C=C\CCN(C2=O)[C@@H](Cc2ccc(C)cc2)C(=O)N(C)CC(=O)N[C@@H](CCc2cc(F)c(C(F)(F)F)c(F)c2)C(=O)N2C[C@H](OCC)C[C@H]2C(=O)NC2(CC(C)(C)C2)C(=O)N(C)[C@@H](C(CC)CC)C(=O)N(C)[C@H](C(=O)N(C)C)CC(=O)N1C [PP2560] the Kd [1] was 1 nM, the “NRAS /KRAS” value [2] was “AA (a compound having 20 or more is denoted as AA)” and the “HRAS /KRAS” value [3] was “A (a compound having 10 or more and less than 20 is denoted as A)”. It also gave an IC50 [4] of 46.3 nM.
CCO[C@@H]1C[C@H]2C(=O)NC3(CC(C)(C)C3)C(=O)N(C)[C@@H](C3CCCC3)C(=O)N(C)[C@H](C(=O)N(C)C)CC(=O)N(C)[C@@H](COC)C(=O)N[C@@H]([C@@H](C)CC)C(=O)N(C3CC3)CC(=O)N(C)[C@H]3C/C=C\CCN(C3=O)[C@@H](CC3CCCCC3)C(=O)N(C)CC(=O)N[C@@H](CCc3ccc(Cl)c(Cl)c3)C(=O)N2C1 [PP2563] was tested, and the Kd [1] was 2.3 nM, the “NRAS /KRAS” value [2] was “A (a compound having 10 or more and less than 20 is denoted as A)” and the “HRAS /KRAS” value [3] was “A (a compound having 10 or more and less than 20 is denoted as A)”. The IC50 [4] was 108 nM.
With CCO[C@@H]1C[C@H]2C(=O)NC3(CC(C)(C)C3)C(=O)N(C)[C@@H](C(CC)CC)C(=O)N(C)[C@H](C(=O)N(C)C)CC(=O)N(C)[C@@H](COC)C(=O)N[C@@H]([C@@H](C)CC)C(=O)N(C3CC3)CC(=O)N(C)[C@H]3C/C=C\CCN(C3=O)[C@@H](CC3CCCCC3)C(=O)N(C)CC(=O)N[C@@H](CCc3cc(F)c(C(F)(F)F)c(F)c3)C(=O)N2C1 [PP2564] the Kd [1] was 7.6 nM, the “NRAS /KRAS” value [2] was “A (a compound having 10 or more and less than 20 is denoted as A)” and the “HRAS /KRAS” value [3] was “A (a compound having 10 or more and less than 20 is denoted as A)”. The IC50 [4] was 222 nM.
For CCC[C@H]1C(=O)N[C@@H]([C@@H](C)CC)C(=O)N(C2CC2)CC(=O)N(C)[C@H]2C/C=C\CCN(C2=O)[C@@H](CC2CCC(F)(F)CC2)C(=O)N(C)CC(=O)N[C@@H](CCc2cc(F)c(C(F)(F)F)c(F)c2)C(=O)N2C[C@H](OCC)C[C@H]2C(=O)NC2(CC(C)(C)C2)C(=O)N(C)[C@@H](C2CCCC2)C(=O)N(C)[C@H](C(=O)N(C)C)CC(=O)N1C [PP2566], the Kd [1] was 0.57 nM, the “NRAS /KRAS” value [2] was “A (a compound having 10 or more and less than 20 is denoted as A)” and the “HRAS /KRAS” value [3] was “B (a compound having 3 or more and less than 10 is denoted as B)”. It also gave an IC50 [4] of 17.6 nM.
CCC[C@H]1C(=O)N[C@@H]([C@@H](C)CC)C(=O)N(C2CC2)CC(=O)N(C)[C@H]2C/C=C\CCN(C2=O)[C@@H](CC2CCC(F)(F)CC2)C(=O)N(C)CC(=O)N[C@@H](CCc2ccc(Cl)c(Cl)c2)C(=O)N2C[C@H](OCC)C[C@H]2C(=O)NC2(CC(C)(C)C2)C(=O)N(C)[C@@H](C2CCCC2)C(=O)N(C)[C@H](C(=O)N(C)C)CC(=O)N1C [PP2567] was tested, and the Kd [1] was 1.9 nM, the “NRAS /KRAS” value [2] was “A (a compound having 10 or more and less than 20 is denoted as A)” and the “HRAS /KRAS” value [3] was “A (a compound having 10 or more and less than 20 is denoted as A)”. The IC50 [4] was 102 nM.
With CCO[C@@H]1C[C@H]2C(=O)NC3(CC(C)(C)C3)C(=O)N(C)[C@@H](C(CC)CC)C(=O)N(C)[C@H](C(=O)N(C)C)CC(=O)N(C)[C@@H](COC)C(=O)N[C@@H]([C@@H](C)CC)C(=O)N(C3CC3)CC(=O)N(C)[C@H]3C/C=C\CCN(C3=O)[C@@H](CC3CCC(F)(F)CC3)C(=O)N(C)CC(=O)N[C@@H](CCc3cc(F)c(C(F)(F)F)c(F)c3)C(=O)N2C1 [PP2568] the Kd [1] was 1.2 nM, the “NRAS /KRAS” value [2] was “A (a compound having 10 or more and less than 20 is denoted as A)” and the “HRAS /KRAS” value [3] was “B (a compound having 3 or more and less than 10 is denoted as B)”. For the same compound, the IC50 [4] was 23.4 nM.
In the case of CCO[C@@H]1C[C@H]2C(=O)NC3(CC(C)(C)C3)C(=O)N(C)[C@@H](C(CC)CC)C(=O)N(C)[C@H](C(=O)N(C)C)CC(=O)N(C)[C@@H](COC)C(=O)N[C@@H]([C@@H](C)CC)C(=O)N(C3CC3)CC(=O)N(C)[C@H]3C/C=C\CCN(C3=O)[C@@H](CC3CCC(F)(F)CC3)C(=O)N(C)CC(=O)N[C@@H](CCc3ccc(Cl)c(Cl)c3)C(=O)N2C1 [PP2569], the Kd [1] is reported as 2.8 nM, the “NRAS /KRAS” value [2] is reported as “AA (a compound having 20 or more is denoted as AA)” and the “HRAS /KRAS” value [3] is reported as “A (a compound having 10 or more and less than 20 is denoted as A)”. For the same compound, the IC50 [4] was 185 nM.
In the case of CCC[C@H]1C(=O)N[C@@H]([C@@H](C)CC)C(=O)N(C2CC2)CC(=O)N(C)[C@H]2C/C=C\CCN(C2=O)[C@@H](Cc2ccc(C)cc2)C(=O)N(C)CC(=O)N[C@@H](CCc2cc(F)c(C(F)(F)F)c(F)c2)C(=O)N2C[C@H](OC(C)C)C[C@H]2C(=O)NC2(CC(C)(C)C2)C(=O)N(C)[C@@H](C2CCCC2)C(=O)N(C)[C@H](C(=O)N(C)C)CC(=O)N1C [PP2570], the Kd [1] is reported as 0.39 nM, the “NRAS /KRAS” value [2] is reported as “A (a compound having 10 or more and less than 20 is denoted as A)” and the “HRAS /KRAS” value [3] is reported as “A (a compound having 10 or more and less than 20 is denoted as A)”. For the same compound, the IC50 [4] was 8.9 nM.
In the case of CCC[C@H]1C(=O)N[C@@H]([C@@H](C)CC)C(=O)N(C2CC2)CC(=O)N(C)[C@H]2C/C=C\CCN(C2=O)[C@@H](Cc2ccc(C)cc2)C(=O)N(C)CC(=O)N[C@@H](CCc2ccc(Cl)c(Cl)c2)C(=O)N2C[C@H](OC(C)C)C[C@H]2C(=O)NC2(CC(C)(C)C2)C(=O)N(C)[C@@H](C2CCCC2)C(=O)N(C)[C@H](C(=O)N(C)C)CC(=O)N1C [PP2571], the Kd [1] is reported as 1 nM, the “NRAS /KRAS” value [2] is reported as “A (a compound having 10 or more and less than 20 is denoted as A)” and the “HRAS /KRAS” value [3] is reported as “A (a compound having 10 or more and less than 20 is denoted as A)”. For the same compound, the IC50 [4] was 76.1 nM.
CCC(CC)[C@H]1C(=O)N(C)[C@H](C(=O)N2CCCCC2)CC(=O)N(C)[C@@H](COC)C(=O)N[C@@H]([C@@H](C)CC)C(=O)N(C)CC(=O)N(C)[C@H]2C/C=C\CCN(C2=O)[C@@H](Cc2ccc(C(F)(F)F)cc2)C(=O)N(C)CC(=O)N[C@@H](CCc2cc(F)c(C(F)(F)F)c(F)c2)C(=O)N2C[C@H](OC(C)C)C[C@H]2C(=O)NC2(CC(C)(C)C2)C(=O)N1C [PP2608] was tested, and the Kd [1] was 1.4 nM, the “NRAS /KRAS” value [2] was “AA (a compound having 20 or more is denoted as AA)” and the “HRAS /KRAS” value [3] was “A (a compound having 10 or more and less than 20 is denoted as A)”. It also gave an IC50 [4] of 53 nM.
CCC(CC)[C@H]1C(=O)N(C)[C@H](C(=O)N2CCCCC2)CC(=O)N(C)[C@@H](COC)C(=O)N[C@@H]([C@@H](C)CC)C(=O)N(C)CC(=O)N(C)[C@H]2C/C=C\CCN(C2=O)[C@@H](Cc2ccc(C(F)(F)F)cc2)C(=O)N(C)CC(=O)N[C@@H](CCc2ccc(Cl)c(Cl)c2)C(=O)N2C[C@H](OC(C)C)C[C@H]2C(=O)NC2(CC(C)(C)C2)C(=O)N1C [PP2612] was tested, and the Kd [1] was 2.4 nM, the “NRAS /KRAS” value [2] was “AA (a compound having 20 or more is denoted as AA)” and the “HRAS /KRAS” value [3] was “A (a compound having 10 or more and less than 20 is denoted as A)”. The IC50 [4] was 199 nM.
